{"source": "paper PMC13294250", "about": "“An effort to enhance the clinical translatability of caprate-based tablet formulations in gastric peptide delivery” (Drug Delivery and Translational Research, 2025)", "key": {"[1]": {"settings": "sodium carbonate as pH modifier candidate in C10 tablets, oral", "procedure": "On top of elevating the pH, the pH-modifying excipient needs to ensure manufacturability of tablets while being compatible with the API in the formulation. An array of alkaline agents capable of increasing the pH were screened (Figure S2) by addition of the pH modifier in 20 mL of acidic media (0.1 M HCl) with 0.1 M KCl, and 10 mg/mL of C10 at 37 °C, which is close to the physiological condition of experimental animals when C10 tablet formulation is dosed. The volume and concentration of HCl and KCl were selected to replicate the gastric in vivo conditions, whereas C10 was added to mimic the intrinsic buffer capacity of the PE present in the tablet."}, "[2]": {"experiment": "CAC and CMC determinations by dynamic light scattering", "assay_type": "physicochemical", "settings": "DLS at 25 °C", "method": "Stock solutions of sodium caprate were made in the individual buffers. 10–100 mM phosphate buffer was used for most sample series, while 50 mM sodium borate was used for pH 9 [31]. In the case of meglumine a 20 mM Tris buffer pH 8.5 was used. Samples were prepared with and without 20 mg/ml meglumine. All samples were pH adjusted and filtered through 0.22 μm (Millipore 6830-0021). Dynamic light scattering (DLS) data was acquired at 25 °C by adding 20–25 µL of each sample in triplicates to a 384 well plate Corning® 3540 (Corning, NY, USA). The plate was centrifuged for 5 min at 1200 rpm before analysis to remove any air bubbles from the wells. […] A DynaPro™ Plate Reader and Dynamics™ software version 7 (Wyatt Technology Corp., Santa Barbara, CA, USA) was used to collect and analyze the data."}, "[3]": {"settings": "cited from earlier work", "from_the_text": "Given the negative impact of low gastric pH on both in vitro and in vivo performance of C10-based tablets, the use of a pH modifier was investigated to mitigate the acidity of the human stomach. Since C10 is an ionizable compound known to form different colloidal structures dependant on pH, selection of an appropriate pH modifier is paramount. The resulting pH should enable fast disintegration and dissolution of the formulation, whilst securing that the colloidal species formed facilitate the permeation enhancing effect needed for absorption of the macromolecule. Monomeric C10 is presumed to b ..."}, "[4]": {"experiment": "Screening of the meglumine amount in acidic medium containing C10", "assay_type": "physicochemical", "settings": "37 °C, pH meter", "method": "In addition, it is an approved pharmaceutical excipient marketed in several oral dosage forms such as telmisartan, repaglinide and rosuvastatine tablets. To identify the most suitable meglumine amount for C10-based tablets, a systematic screening was conducted in 20 mL acidic medium (KCl 0.1 M/ HCl 0.025 M, 10 mL + 10 mL of MQ water) reflecting the composition of dog gastric fluid after dosing of water. The medium contained either 50, 100, 200, or 300 mg of C10 to account for different enhancer amounts, and the evolution of pH against added meglumine amount was monitored (Table 1). Since a final pH above 8.5 around the tablet in the stomach is desirable for C10 dissolution and to achieve the single-phased micellar system with high monomeric C10 availability, the corresponding meglumine amount needed to reach pH 8.5 was set as the lower limit for formulation development.\nA stock solution of KCl 0.1 M/ HCl 0.025 M, pH = 1.6 was prepared. 10mL of this solution was added to 10 mL of MQ water in tubes containing either 50, 100, 200, or 300 mg of C10 granules. Each solution was gently stirred at 37 °C. Meglumine was added in amounts beyond the calculated neutralization point. pH was recorded using a pH meter PHM 200 (Mettler Toledo). Turbidity/clarity was visually assessed for records."}, "[5]": {"settings": "no reference given; cited from earlier work", "from_the_text": "Meglumine was selected due to its capability to both raise the pH to the desired level and produce tablets with the required quality. […] In addition, it is an approved pharmaceutical excipient marketed in several oral dosage forms such as telmisartan, repaglinide and rosuvastatine tablets. To identify the most suitable meglumine amount for C10-based tablets, a systematic screening ..."}, "[6]": {"settings": "50 mg C10 / 20 mL acidic medium (10 mL KCl 0.1 M/HCl 0.025 M pH 1.6 + 10 mL MQ water)"}, "[7]": {"settings": "200 mg C10 / 20 mL acidic medium (10 mL KCl 0.1 M/HCl 0.025 M pH 1.6 + 10 mL MQ water)"}, "[8]": {"settings": "300 mg C10 / 20 mL acidic medium (10 mL KCl 0.1 M/HCl 0.025 M pH 1.6 + 10 mL MQ water)"}}, "note": "Like-named read-outs stand apart in the source and are kept apart here."}
{"smiles": "O=C([O-])[O-].[Na+].[Na+]", "note": "[Sodium carbonate]", "values": [{"measurement": "adverse events in dogs", "setting": "[1]", "result": "vomiting"}]}
{"smiles": "CCCCCCCCCC(=O)[O-].[Na+]", "note": "[Formulation C10, Sodium caprate]", "values": [{"measurement": "critical aggregate concentration (CAC) of C10 vesicles", "setting": "[2]; pH lower than approximately 8.5, phosphate buffer, triplicates", "result": "around 15 mM"}, {"measurement": "critical micelle concentration (CMC)", "setting": "[3]; pH 9.1", "result": 81, "unit": "mM"}, {"measurement": "critical micelle concentration (CMC)", "setting": "[3]; pH 11.8", "result": 102, "unit": "mM"}]}
{"smiles": "CNC[C@H](O)[C@@H](O)[C@H](O)[C@H](O)CO", "note": "[meglumine, Meglumine]", "values": [{"measurement": "Amount of meglumine (mg) to pH 8.5", "setting": "[4]; [6]", "result": 15, "unit": "mg"}, {"measurement": "Amount of meglumine (mg) to pH 9.5", "setting": "[4]; [6]", "result": 25, "unit": "mg"}, {"measurement": "Amount of meglumine (mg) to pH 9.5", "setting": "[4]; 100 mg C10 / 20 mL acidic medium (10 mL KCl 0.1 M/HCl 0.025 M pH 1.6 + 10 mL MQ water)", "result": 60, "unit": "mg"}, {"measurement": "Amount of meglumine (mg) to pH 8.5", "setting": "[4]; [7]", "result": 60, "unit": "mg"}, {"measurement": "Amount of meglumine (mg) to pH 9.5", "setting": "[4]; [7]", "result": 100, "unit": "mg"}, {"measurement": "Amount of meglumine (mg) to pH 8.5", "setting": "[4]; [8]", "result": 90, "unit": "mg"}, {"measurement": "Amount of meglumine (mg) to pH 9.5", "setting": "[4]; [8]", "result": 125, "unit": "mg"}, {"measurement": "impact of meglumine on the CMC of C10 (in words)", "setting": "[2]; 20 mM Tris buffer pH 8.5, with and without 20 mg/ml meglumine", "result": "did not show any impact"}, {"measurement": "pKa", "setting": "[5]", "result": 9.6}]}
